Measured values taken from publication PMC12040169 (PLOS Biology, 2025).

Assay: in vitro
Conditions: human, hela cells, % viability

SMILES	viability at 28.5 h, 10 µM [%]
CN(C)S(=O)(=O)c1ccc(C(=O)C2=C(O)C(=O)N(Cc3cccnc3)C2c2ccccc2)cc1 (centres unmarked) [CBK264667]	100
CN(C)CCN1C(=O)C(O)=C(C(=O)c2ccc(S(=O)(=O)N3CCOCC3)cc2)C1c1ccccc1 (centres unmarked) [CBK264668]	100
CC(Sc1ccc(Cl)cc1)C(=O)Nc1ccc(CSc2ccccc2)cc1 (centres unmarked) [CBK264670]	93.2
O=C(O)c1ccc(COc2ccc(/C=C3\SC(=S)N(Cc4cccnc4)C3=O)cc2Cl)cc1 [CBK264672]	91.9
O=C1/C(=C/c2ccc3c(c2)OCO3)SC(=S)N1CCCC(=O)N1CCCc2ccccc21 [CBK264676]	98.2
O=C(NC(Cc1ccccc1)C(=O)O)c1ccc(Cl)cc1 (centres unmarked) [CBK264677]	96.1
CC1=NN(c2ccc(S(N)(=O)=O)cc2)C(=O)/C1=C/c1ccc(-c2ccc3c(c2)COC3=O)o1 [CBK264678]	95.6
CN(C)CCN1C(=O)C(O)=C(C(=O)c2ccc(S(=O)(=O)N3CCOCC3)cc2)C1c1ccc(F)cc1 (centres unmarked) [CBK264683]	104
c1ccc(N2CCN(C3CCN(Cc4ccccn4)CC3)CC2)cc1 [CBK264684G]	110
Cc1nc(N2CCOCC2)nc(Nc2ccc(Cl)cc2)c1[N+](=O)[O-] [CBK264685]	87.5
Clc1cccc(CN2CCC(N3CCN(c4ccccc4)CC3)CC2)c1 [CBK264690G]	98.7
CN(C)CCN1C(=O)C(O)=C(C(=O)c2ccc(S(=O)(=O)N3CCOCC3)cc2)C1c1ccc(Br)cc1 (centres unmarked) [CBK264693]	93.5
CC1CC(C)CN(C(=O)Cn2c(-c3nonc3N)nc3ccccc32)C1 (centres unmarked) [CBK264694]	89.7
O=C(C1=C(O)C(=O)N(Cc2cccnc2)C1c1cccc(Oc2ccccc2)c1)c1ccc(Cl)cc1 (centres unmarked) [CBK264698]	86.6
O=C(Cn1c(-c2cncs2)nc2ccccc21)NCc1ccc2c(c1)OCO2 [CBK264699]	95.5
CN(C)S(=O)(=O)c1ccc(C(=O)C2=C(O)C(=O)N(CCN3CCCCC3)C2c2cccnc2)cc1 (centres unmarked) [CBK264700]	99.9
Cc1ccccc1OCC(=O)Oc1ccc(-c2cnc3ccccc3n2)cc1 [CBK264703]	100
COc1cc(C(=O)Nc2cc(-c3nc4ncccc4o3)ccc2C)ccc1OCc1ccc(Cl)cc1 [CBK264704]	112
O=C(Cn1c(-c2cncs2)nc2ccccc21)NCc1ccccc1 [CBK264705]	103
O=S(=O)(NC1c2cccc3cccc(c23)C1Sc1ncccn1)c1ccccc1 (centres unmarked) [CBK264706]	103
Cn1cnnc1SC1c2cccc3cccc(c23)C1NS(=O)(=O)c1ccc(Cl)cc1 (centres unmarked) [CBK264707]	98.2
Cc1ccc(OC(=O)CCC(=O)Nc2ccc(S(N)(=O)=O)cc2)cc1 [CBK264708]	95.1
CN(C)S(=O)(=O)c1ccc(C(=O)C2=C(O)C(=O)N(Cc3cccnc3)C2c2ccncc2)cc1 (centres unmarked) [CBK264714]	95.4
O=C(CC1Sc2ccccc2NC1=O)Nc1ccc([N+](=O)[O-])c(F)c1 (centres unmarked) [CBK264717]	85.5
Cc1cc(C(=O)Nc2nnc[nH]2)ccc1[N+](=O)[O-] [CBK264719]	99.7
COc1ccc(CN2CCC(N3CCN(c4ccccc4F)CC3)CC2)cc1OCc1ccccc1 [CBK264720G]	105
COc1ccc(CN2CCC(N3CCCCCC3)CC2)cc1OC [CBK264721G]	90.8

SMILES	viability at 28.5 h, 10 µM [%]
CC(NC(=O)c1c(Cl)c(Cl)c(Cl)c(Cl)c1C(=O)O)c1cccs1 (centres unmarked) [CBK264722]	107
COc1ccc(C(=O)C2=C(O)C(=O)N(CCCN(C)C)C2c2ccc(Cl)c(Cl)c2)cc1 (centres unmarked) [CBK264723]	94.4
COc1ccc(Cl)cc1NC(=O)CN(c1cc(C(F)(F)F)ccc1Cl)S(C)(=O)=O [CBK264724]	82.5
Cc1ccc(NC(=O)CN2C(=O)S/C(=C\c3cc(C)n(-c4cccc(C(=O)O)c4)c3C)C2=O)cc1 [CBK264725]	89.9
Cc1ccc(S(=O)(=O)N(CC(=O)Nc2ccccc2C)Cc2ccc(Cl)c(Cl)c2)cc1 [CBK264735]	93.3
Cc1ccc2nc(-c3ccccc3)c(CN3CCCC3)c(O)c2c1 [CBK264736]	106
COc1ccccc1N(CC(=O)Nc1ccc2c(c1)oc1ccccc12)S(=O)(=O)c1ccccc1 [CBK264737]	87.8
Cc1ccc(N(CC(O)CN2CCCC2)S(=O)(=O)c2ccccc2)cc1 (centres unmarked) [CBK264739]	101
CCNC(=S)N1CCN(CCNC=C2C(=O)CC(c3ccco3)CC2=O)CC1 (centres unmarked) [CBK264742]	91.7
O=C(/C=C/C=C/c1ccccc1)CC1(O)C(=O)N(Cc2cccc3ccccc23)c2ccccc21 (centres unmarked) [CBK264744]	93.6
CC(=O)Nc1ccc(S(=O)(=O)Nc2ccc(S(=O)(=O)Nc3cc(C)ccc3C)cc2)cc1 [CBK264745]	98.4
CCCn1c(=N)n(CCOc2cccc(C)c2)c2ccccc21 [CBK264746B]	89.2
COc1ccc(OC)c(C2C(C(=O)c3ccccc3)=C(O)C(=O)N2CCN2CCOCC2)c1 (centres unmarked) [CBK264748]	114
Cc1ncc([N+](=O)[O-])n1CCSc1nnc(SCc2ccccc2)s1 [CBK264751]	86.4
Cc1n[nH]c(O)c1C(c1cccc([N+](=O)[O-])c1)c1c(C)n[nH]c1O [CBK264753]	97.8
O=C(O)CCc1ccc(-c2ccc(F)cc2)n1-c1cc(Cl)ccc1Cl [CBK264754]	111
CCOC(=O)c1cnc2c(C)cc(C)cc2c1NCCN1CCOCC1 [CBK264757]	109
CC(=O)Nc1cccc(NC(=O)CSc2ccc(C(F)(F)F)cc2[N+](=O)[O-])c1 [CBK264758]	103
CC(C)(C)c1ccc(S(=O)(=O)N/N=C\c2ccc(Cl)cc2Cl)cc1 [CBK264759]	84.6
COc1ccc(C2CC(=O)C(=CNCCN3CCN(C(=O)c4ccccc4)CC3)C(=O)C2)cc1 (centres unmarked) [CBK264762]	104
CC(=O)Nc1ccc(S(=O)(=O)N2CCN(c3ccc([N+](=O)[O-])c(N4CCOCC4)c3)CC2)cc1 [CBK264764]	109
CC(Nc1nc(-c2ccc([N+](=O)[O-])cc2)nc2ccccc12)c1ccccc1 (centres unmarked) [CBK264767]	88.3
Cc1cc(/C=C(/C#N)c2nc3ccccc3[nH]2)c(C)n1-c1ccc(S(N)(=O)=O)cc1 [CBK264769]	77.8
CC(=O)NS(=O)(=O)c1ccc(-c2ccc(/C=C(/C#N)c3nc4ccc(C)cc4[nH]3)o2)cc1 [CBK264771]	109
O=[N+]([O-])c1ccc(N2CCN(S(=O)(=O)N3CCCC3)CC2)c(Cl)c1 [CBK264772]	102
CCN(CC)S(=O)(=O)c1ccc(OC)c(NC(=O)C2c3ccccc3Oc3ccccc32)c1 [CBK264774]	101
CC1(C)CC(=O)C(C(=S)Nc2ccc(F)cc2)=C(NCc2ccc3c(c2)OCO3)C1 [CBK264779]	97.5

SMILES	viability at 28.5 h, 10 µM [%]
O=C(O)CCc1ccc(-c2cccs2)n1NC(=O)c1sc2ccccc2c1Cl [CBK264782]	96.1
CCCc1cc(=O)oc2cc(OCc3ccc(C(=O)O)o3)ccc12 [CBK264786]	108
O=[N+]([O-])c1ccc(-c2nc(NCc3cccnc3)c3ccccc3n2)cc1 [CBK264788]	100
O=C(COC(=O)C1CCC(N2C(=O)c3ccccc3C2=O)CC1)c1ccc(-c2ccccc2)cc1 (centres unmarked) [CBK264789]	90.4
CCOc1ccccc1-n1c(CCC(=O)O)ccc1-c1cccs1 [CBK264794]	105
O=[N+]([O-])c1ccccc1S(=O)(=O)Nc1ccc(S(=O)(=O)Nc2ccccc2)cc1 [CBK264796]	106
CCOC(=O)c1cnc2c(C)cc(Cl)cc2c1NCCN(C)C [CBK264800]	90.7
Cc1cc(Cl)ccc1OCC(=O)NC(=S)Nc1cccc(-c2nc3ccccc3s2)c1 [CBK264802]	105
Cc1ccc(NC(=O)C(=O)NCCCN2CCOCC2)cc1Cl [CBK264806]	97.4
COc1ccc(C(=O)COC(=O)c2cccc(N3C(=O)C4C5C=C(C)C(C5)C4C3=O)c2)cc1 (centres unmarked) [CBK264808]	94.1
Cc1ccc(NS(=O)(=O)c2ccc(NC(=O)c3ccc(CN4CCOCC4)cc3)cc2)c(C)c1 [CBK264815]	94.5
COCCNc1nc(-c2ccc([N+](=O)[O-])cc2)nc2ccccc12 [CBK264819]	109
Cc1ccc(-c2ccc(CCC(=O)O)[nH]2)cc1 [CBK264820]	109
Cc1ccccc1OCC(O)CNC(=O)c1ccccc1C(=O)O (centres unmarked) [CBK264824]	94.8
O=[N+]([O-])c1ccc(N2CCN(S(=O)(=O)c3ccc4ccccc4c3)CC2)c(C(F)(F)F)c1 [CBK264827]	103
O=C(Nc1cccc(NC(=S)NC(=O)c2ccc(Cl)cc2Cl)c1)c1ccccc1F [CBK264828]	107
COc1ccccc1N(CC(O)CN1CCCC1)S(=O)(=O)c1ccccc1 (centres unmarked) [CBK264829]	114
Cn1c(-c2c(CCC(=O)O)oc3cc(O)ccc3c2=O)nc2ccccc21 [CBK264831]	96
Cc1ccccc1N1CCN(C(=O)c2c(C)oc3cc4c(C(=O)N5CCN(c6ccccc6C)CC5)c(C)oc4cc23)CC1 [CBK264833]	89.2
NS(=O)(=O)c1ccc(NC(=O)CN2C(=O)S/C(=C\C=C\c3ccccc3)C2=O)cc1 [CBK264835]	94.6
Cc1ccc(NC(=O)C(=O)NCCCN2CCOCC2)cc1C [CBK264836]	106
O=C(O)CCSc1nc(-c2ccccc2)c(-c2ccccc2)n1-c1ccccc1 [CBK264837]	113
CCc1cc2c(=O)c(-c3nc(C)cs3)c(CCC(=O)O)oc2cc1O [CBK264838]	108
Cc1cccc(C(=O)Nc2c(C(=O)Nc3ccc(Br)cc3)cnn2-c2ccccc2)c1 [CBK264839]	113
CC(C)c1ccccc1OCC(=O)OCCN1C(=O)c2ccccc2C1=O [CBK264841]	92.2
O=C(CN(C1CCCCC1)S(=O)(=O)c1ccc(Br)cc1)NCc1ccccn1 [CBK264846]	93.6
